Measured values taken from patent US5776886A, “Intravaginal preparation containing physiologically active peptide” (Teikoku Seiyaku Kabushiki Kaisha, priority 1993, dated 1998).

How the values were obtained:
Assay type in all cases: in vivo, Wistar rats
[1] = test system: calcium level in the serum; assay: Experiment 4: effects of the concentration of sucrose fatty acid ester on serum calcium reduction; conditions: sucrose fatty acid ester (S-970) 1 w/w %, citric acid 100 mg per 5.00 g; intravaginal suppository 20 μg, rats; 2 hr
Procedure: (§1) An intravaginal suppository was administered into the rat's vagina, and the blood was collected periodically (2, 4 and 6 hours after administration of the test preparation).
(§2) The serum was separated, and the calcium level in the serum was determined by using a kit for determination of calcium (Calcium C Test Wako; manufactured by Wako Pure Chemical Industries, Ltd.) (n=3).
Human calcitonin (2 mg) was precisely measured, and thereto were added citric acid (100 mg) and Ryoto-Sugar Ester S-970 (50 mg, 100 mg or 400 mg), and the mixture was mixed well.
In the same manner as in Experiment 1, each intravaginal suppository was administered to the rat's vagina, and the blood was collected periodically (2 and 4 hours after administration of intravaginal suppository), and the calcium level in the serum thereof was determined (n=3).

[2] = test system: calcium level in the serum; assay: Experiment 6: effects of the concentration of organic acid on serum calcium reduction; conditions: for Reduction rate (%) of calcium level in the serum: pH 3.5, + S-970, intravaginal suppository 20 μg, rats
Procedure: as §1, §2
(§3) In the same manner as in Experiment 1, each intravaginal suppository was administered to the rat's vagina, and the blood was collected periodically (2, 4 and 6 hours after administration of intravaginal suppository), and the calcium level in the serum thereof was determined (n=3).

[3] = test system: calcium level in the serum; assay: Experiment 7: effects of pH of the solution in the suppository on serum calcium reduction; conditions: for Reduction rate (%) of calcium level in the serum: citric acid + S-970, intravaginal 20 μg, rats
Procedure: as §1, §2, §3

[4] = test system: calcium level in the serum; assay: Experiment 1: serum calcium reduction after human calcitonin intravaginal suppository, sucrose fatty acid ester plus citric acid vs each alone; conditions: for Reduction rate (%) of calcium level in the serum: intravaginal suppository 20 μg, ovariectomized rats
Procedure: To the mixture was added a commercially available base for intravaginal preparation; Witepsol S-55 (which is prepared from Witepsol E-85 so as to give a final intravaginal suppository having a melting point of 36.5° C., manufactured by Hils Co., Ltd., former Diamit Novel Co., Ltd) which was homogenized by previously warming and stirring thereof so as to give an intravaginal suppository with the total weight of 5.00 g. […] The mixture was poured into a tube (inside diameter: about 3 mm) made of teflon at about 40° C., cooled to solidify, and taken out from the tube. The solidified mixture was cut into pieces (weight: 50 mg) to give intravaginal suppositories for rats containing human calcitonin (20 μg/each). There were also obtained two kinds of intravaginal suppositories prepared by adding citric acid (50 mg) only, and prepared by adding a sucrose fatty acid ester (100 mg) only, likewise. There were obtained intravaginal suppositories containing only human calcitonin without citric acid nor a sucrose fatty acid ester, likewise, which are used as control.
as §1, §2

Substance: Human calcitonin
- Reduction rate (%) of calcium level in the serum [1]: 10.8%
- calcium level in the blood ([2]; citric acid 1, 2, 5 or 10 w/w % with sucrose fatty acid ester): reduced at any concentration of citric acid to be used
- Reduction rate (%) of calcium level in the serum ([2]; organic acid (citric acid) 1 w/w %, 2 hr): 14.6%
- Reduction rate (%) of calcium level in the serum ([2]; organic acid (citric acid) 1 w/w %, 4 hr): 15.7%
- Reduction rate (%) of calcium level in the serum ([2]; organic acid (citric acid) 1 w/w %, 6 hr): 9.2%
- Reduction rate (%) of calcium level in the serum ([2]; organic acid (citric acid) 2 w/w %, 2 hr): 15.3%
- Reduction rate (%) of calcium level in the serum ([2]; organic acid (citric acid) 2 w/w %, 4 hr): 18.7%
- Reduction rate (%) of calcium level in the serum ([2]; organic acid (citric acid) 2 w/w %, 6 hr): 8.2%
- Reduction rate (%) of calcium level in the serum ([2]; organic acid (citric acid) 5 w/w %, 2 hr): 17.9%
- Reduction rate (%) of calcium level in the serum ([2]; organic acid (citric acid) 5 w/w %, 4 hr): 19.4%
- Reduction rate (%) of calcium level in the serum ([2]; organic acid (citric acid) 5 w/w %, 6 hr): 7.5%
- Reduction rate (%) of calcium level in the serum ([2]; organic acid (citric acid) 10 w/w %, 2 hr): 18.4%
- Reduction rate (%) of calcium level in the serum ([2]; organic acid (citric acid) 10 w/w %, 4 hr): 19.0%
- Reduction rate (%) of calcium level in the serum ([2]; organic acid (citric acid) 10 w/w %, 6 hr): 5.0%
- promotion effect of a combination of a sucrose fatty acid ester and citric acid ([3]; pH of the solution 3.0 to 5.5): observed in the cases of pH 3.0 to 5.5, and the effects thereof were not significantly different in the cases of pH 3.0 to 4.5
- Reduction rate (%) of calcium level in the serum ([3]; pH of the solution in suppository 3.0, 2 hr): 11.0%
- Reduction rate (%) of calcium level in the serum ([3]; pH of the solution in suppository 3.0, 4 hr): 22.0%
- Reduction rate (%) of calcium level in the serum ([3]; pH of the solution in suppository 3.0, 6 hr): 8.7%
- Reduction rate (%) of calcium level in the serum ([3]; pH of the solution in suppository 3.5, 2 hr): 9.4%
- Reduction rate (%) of calcium level in the serum ([3]; pH of the solution in suppository 3.5, 4 hr): 19.8%
- Reduction rate (%) of calcium level in the serum ([3]; pH of the solution in suppository 3.5, 6 hr): 8.8%
- Reduction rate (%) of calcium level in the serum ([3]; pH of the solution in suppository 4.0, 2 hr): 9.4%
- Reduction rate (%) of calcium level in the serum ([3]; pH of the solution in suppository 4.0, 4 hr): 20.2%
- Reduction rate (%) of calcium level in the serum ([3]; pH of the solution in suppository 4.0, 6 hr): 10.2%
- Reduction rate (%) of calcium level in the serum ([3]; pH of the solution in suppository 4.5, 2 hr): 9.5%
- Reduction rate (%) of calcium level in the serum ([3]; pH of the solution in suppository 4.5, 4 hr): 22.8%
- Reduction rate (%) of calcium level in the serum ([3]; pH of the solution in suppository 4.5, 6 hr): 9.1%
- Reduction rate (%) of calcium level in the serum ([3]; pH of the solution in suppository 5.0, 2 hr): 10.2%
- Reduction rate (%) of calcium level in the serum ([3]; pH of the solution in suppository 5.0, 4 hr): 11.4%
- Reduction rate (%) of calcium level in the serum ([3]; pH of the solution in suppository 5.0, 6 hr): 2.7%
- Reduction rate (%) of calcium level in the serum ([3]; pH of the solution in suppository 5.5, 2 hr): 8.1%
- Reduction rate (%) of calcium level in the serum ([3]; pH of the solution in suppository 5.5, 4 hr): 13.2%
- Reduction rate (%) of calcium level in the serum ([3]; pH of the solution in suppository 5.5, 6 hr): 4.3%
- Reduction rate (%) of calcium level in the serum ([4]; Control: only human calcitonin, no citric acid nor sucrose fatty acid ester, 2 hr): 2.6%
- Reduction rate (%) of calcium level in the serum ([4]; Control: only human calcitonin, no citric acid nor sucrose fatty acid ester, 4 hr): 2.2%
- Reduction rate (%) of calcium level in the serum ([4]; Control: only human calcitonin, no citric acid nor sucrose fatty acid ester, 6 hr): 3.8%
- Reduction rate (%) of calcium level in the serum ([4]; added: citric acid only, 2 hr): 9.5%
- Reduction rate (%) of calcium level in the serum ([4]; added: citric acid only, 4 hr): 8.0%
- Reduction rate (%) of calcium level in the serum ([4]; added: citric acid only, 6 hr): 5.7%
- Reduction rate (%) of calcium level in the serum ([4]; added: sucrose fatty acid ester (S-970) and citric acid, base Witepsol S-55, 2 hr): 14.9%
- Reduction rate (%) of calcium level in the serum ([4]; added: sucrose fatty acid ester (S-970) and citric acid, base Witepsol S-55, 4 hr): 19.5%
- Reduction rate (%) of calcium level in the serum ([4]; added: sucrose fatty acid ester (S-970) and citric acid, base Witepsol S-55, 6 hr): 11.1%
- Reduction rate (%) of calcium level in the serum ([4]; added: sucrose fatty acid ester (S-970) only, 2 hr): 10.6%
- Reduction rate (%) of calcium level in the serum ([4]; added: sucrose fatty acid ester (S-970) only, 4 hr): 10.5%
- Reduction rate (%) of calcium level in the serum ([4]; added: sucrose fatty acid ester (S-970) only, 6 hr): 10.7%
- calcitonin-absorption promotion effects, on the basis of the reduction rate of the calcium level in the serum ([4]; combination of sucrose fatty acid ester and citric acid compared with either only): far superior
